Laboratory results: BindingDB's records for doi:10.1021/jm990200p (Synaptic Pharmaceutical, 1999)

Experiment: In vitro binding affinity against Alpha-1A adrenergic receptor in isolated prostate tissue of dog

CCC1=C(C(N)=O)C(c2ccc(F)c(F)c2)N(C(=O)NCCCN2CCC(C(=O)OC)(c3ccccc3)CC2)C(=O)N1 (stereo unspecified) [1-(3-{[5-Carbamoyl-6-(3,4-difluoro-phenyl)-4-ethyl-2-oxo-3,6-dihydro-2H-pyrimidine-1-carbonyl]-amino}-propyl)-4-phenyl-piperidine-4-carboxylic acid methyl ester]
Ki: 1.3 nM
